# Measured values reported in patent publication US20260285863A1, “COMPOUNDS CAPABLE OF MODULATING GPR65” (Pathios Therapeutics Limited, priority 2023, published 2026).
# Biological target: T1, human recombinant GPR65 (Homo sapiens, UniProt Q8IYL9)
# T1 construct: host or cells: 1321N1 human astrocytoma cells (1321N1-hrGPR65)
# Assay: Human GPR65 cAMP HTRF antagonist assay
# Assay type: cell-based
# Conditions: 1321N1-hrGPR65 cells, assay pH 7.2, cAMP HTRF; read-out: hGPR65 IC50
# Procedure, shortened: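 1321N1 cells stably expressing human GPR65 were preincubated 30 min at room temperature with compound in KRH pH 7.6 containing 1 mM IBMX and 200 μM EDTA. They were then acid-stimulated to pH 7.2 for 30 min, with pH 7.9 as control. cAMP was read by HTRF (665/620 ratio), and IC50 came from normalised 4-parameter logistic fits.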
# T1 sequence (Q8IYL9 whole entry): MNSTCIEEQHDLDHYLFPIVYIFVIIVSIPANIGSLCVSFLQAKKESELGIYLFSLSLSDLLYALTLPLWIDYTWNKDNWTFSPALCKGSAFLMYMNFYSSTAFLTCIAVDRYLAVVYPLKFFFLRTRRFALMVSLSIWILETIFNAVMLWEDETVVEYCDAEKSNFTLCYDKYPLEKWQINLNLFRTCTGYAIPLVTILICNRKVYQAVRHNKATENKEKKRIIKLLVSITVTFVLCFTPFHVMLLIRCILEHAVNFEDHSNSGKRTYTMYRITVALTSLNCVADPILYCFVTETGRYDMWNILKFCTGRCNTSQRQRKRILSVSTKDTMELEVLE
row,SMILES,IC50 [µM]
1,"O=C(Nc1cc(Cl)c(COc2cccc(OC3CCCC3)n2)cc1F)N1[C@H]2CC[C@@H]1c1n[nH]c(=O)cc1C2 [Compound 59, (6S,9R)-N-(5-chloro-4-(((6-(cyclopentyloxy)pyridin-2-yl)oxy)methyl)-2-fluorophenyl)-3-oxo-3,5,6,7,8,9-hexahydro-2H-6,9-epiminocyclohepta[c]pyridazine-10-carboxamide]",< 0.5
2,"O=C(Nc1cc(Cl)c(-c2ccc(OCC34CNC(C3)C4)nc2)cc1F)N1[C@H]2CC[C@@H]1c1c[nH]c(=O)cc1C2 [Compound 60, (6S,9R)-N-(4-(6-((2-azabicyclo[2.1.1]hexan-4-yl)methoxy)pyridin-3-yl)-5-chloro-2-fluorophenyl)-3-oxo-3,5,6,7,8,9-hexahydro-2H-6,9-epiminocyclohepta[c]pyridine-10-carboxamide]",0.5 to 5
3,"CN1CC2(COc3ccc(-c4cc(F)c(NC(=O)N5[C@H]6CC[C@@H]5c5c[nH]c(=O)cc5C6)cc4Cl)cn3)CC1C2 [Compound 61, (6S,9R)-N-(5-Chloro-2-fluoro-4-(6-((2-methyl-2-azabicyclo[2.1.1]hexan-4-yl)methoxy)pyridin-3-yl)phenyl)-3-oxo-3,5,6,7,8,9-hexahydro-2H-6,9-epiminocyclohepta[c]pyridine-10-carboxamide]",0.5 to 5
4,CN1CCC(Oc2ccc(-c3cc(F)c(NC(=O)N4[C@H]5CC[C@@H]4c4c[nH]c(=O)cc4C5)cc3Cl)cn2)C1 (stereo partly shown) [Compound 62],0.5 to 5
5,"O=C(Nc1cc(Cl)c(-c2ccc(OCC3CNC3)nc2)cc1F)N1[C@H]2CC[C@@H]1c1c[nH]c(=O)cc1C2 [Compound 63, (6S,9R)-N-(4-(6-(Azetidin-3-ylmethoxy)pyridin-3-yl)-5-chloro-2-fluorophenyl)-3-oxo-3,5,6,7,8,9-hexahydro-2H-6,9-epiminocyclohepta[c]pyridine-10-carboxamide]",0.5 to 5
6,"O=C(Nc1cc(Cl)c(NCc2cccc(OCC(F)(F)F)n2)cc1F)N1[C@H]2CC[C@@H]1c1n[nH]c(=O)cc1C2 [Compound 64, (6S,9R)-N-(5-chloro-2-fluoro-4-(((6-(2,2,2-trifluoroethoxy)pyridin-2-yl)methyl)amino)phenyl)-3-oxo-3,5,6,7,8,9-hexahydro-2H-6,9-epiminocyclohepta[c]pyridazine-10-carboxamide]",< 0.5
7,"O=C(Nc1cc(Cl)c(NCc2ccc(OCC(F)(F)F)cn2)cc1F)N1[C@H]2CC[C@@H]1c1n[nH]c(=O)cc1C2 [Compound 65, (6S,9R)-N-(5-chloro-2-fluoro-4-(((5-(2,2,2-trifluoroethoxy)pyridin-2-yl)methyl)amino)phenyl)-3-oxo-3,5,6,7,8,9-hexahydro-2H-6,9-epiminocyclohepta[c]pyridazine-10-carboxamide]",0.5 to 5
8,"O=C(Nc1cc(Cl)c(Cl)cc1F)N1[C@H]2CC[C@@H]1c1cc[n+]([O-])cc1C2 [Compound 66, (5R,8S)-10-((4,5-dichloro-2-fluorophenyl)carbamoyl)-6,7,8,9-tetrahydro-5H-5,8-epiminocyclohepta[c]pyridine 2-oxide]",< 0.5
9,"O=C(Nc1cc(Cl)c(C(F)(F)F)cc1F)N1[C@H]2CC[C@@H]1c1cc[n+]([O-])cc1C2 [Compound 67, (5R,8S)-10-((5-chloro-2-fluoro-4-(trifluoromethyl)phenyl)carbamoyl)-6,7,8,9-tetrahydro-5H-5,8-epiminocyclohepta[c]pyridine 2-oxide]",< 0.5
10,"Cc1nc2cc(-c3cc(F)c(NC(=O)N4[C@H]5CC[C@@H]4c4c[nH]c(=O)cc4C5)cc3Cl)ccc2[nH]1 [Compound 68, (6S,9R)-N-(5-chloro-2-fluoro-4-(2-methyl-1H-benzo[d]imidazol-5-yl)phenyl)-3-oxo-3,5,6,7,8,9-hexahydro-2H-6,9-epiminocyclohepta[c]pyridine-10-carboxamide]",0.5 to 5
11,"O=C(Nc1cc(Cl)c(-c2ccc(OCC(F)(F)F)nc2)cc1F)N1[C@@H]2CC[C@H]1C(F)(F)c1c2ccnc1F [Compound 71, (5R,8S)-N-(5-Chloro-2-fluoro-4-(6-(2,2,2-trifluoroethoxy)pyridin-3-yl)phenyl)-1,9,9-trifluoro-6,7,8,9-tetrahydro-5H-5,8-epiminocyclohepta[c]pyridine-10-carboxamide]",< 0.5
12,"O=C(Nc1cc(Cl)c(-c2ccc(OCC(F)(F)F)nc2)cc1F)N1[C@H]2CC[C@@H]1C(F)(F)c1c2ccnc1F [Compound 72, (5S,8R)-N-(5-Chloro-2-fluoro-4-(6-(2,2,2-trifluoroethoxy)pyridin-3-yl)phenyl)-1,9,9-trifluoro-6,7,8,9-tetrahydro-5H-5,8-epiminocyclohepta[c]pyridine-10-carboxamide]",< 0.5
13,"O=C(Nc1cc(Cl)c(-c2ccc3nonc3c2)cn1)N1[C@H]2CC[C@@H]1C(F)(F)c1c2ccnc1F [Compound 73, (5S,8R)-N-(5-(Benzo[c][1,2,5]oxadiazol-5-yl)-4-chloropyridin-2-yl)-1,9,9-trifluoro-6,7,8,9-tetrahydro-5H-5,8-epiminocyclohepta[c]pyridine-10-carboxamide]",0.5 to 5
14,"O=C(Nc1cc(Cl)c(-c2ccc3nonc3c2)cn1)N1[C@@H]2CC[C@H]1C(F)(F)c1c2ccnc1F [Compound 74, (5R,8S)-N-(5-(Benzo[c][1,2,5]oxadiazol-5-yl)-4-chloropyridin-2-yl)-1,9,9-trifluoro-6,7,8,9-tetrahydro-5H-5,8-epiminocyclohepta[c]pyridine-10-carboxamide]",< 0.5
15,"O=C(Nc1cc(Cl)c(-c2ccc3nonc3c2)cn1)N1[C@@H]2CC[C@H]1c1ccnc(F)c1[C@H]2F [Compound 75, (5S,8R,9R)-N-(5-(Benzo[c][1,2,5]oxadiazol-5-yl)-4-chloropyridin-2-yl)-1,9-difluoro-6,7,8,9-tetrahydro-5H-5,8-epiminocyclohepta[c]pyridine-10-carboxamide]",< 0.5
16,"O=C(Nc1cc(Cl)c(-c2ccc3nonc3c2)cn1)N1[C@@H]2CC[C@H]1[C@@H](F)c1c2ccnc1F [Compound 76, (5R,8S,9S)-N-(5-(Benzo[c][1,2,5]oxadiazol-5-yl)-4-chloropyridin-2-yl)-1,9-difluoro-6,7,8,9-tetrahydro-5H-5,8-epiminocyclohepta[c]pyridine-10-carboxamide]",< 0.5
17,"O=C(Nc1cc(Cl)c(-c2ccc(OC[C@@H]3CCOC3)nc2)cc1F)N1[C@H]2CC[C@@H]1c1n[nH]c(=O)cc1C2 [Compound 79, (6S,9R)-N-(5-Chloro-2-fluoro-4-(6-(((R)-tetrahydrofuran-3-yl)methoxy)pyridin-3-yl)phenyl)-3-oxo-3,5,6,7,8,9-hexahydro-2H-6,9-epiminocyclohepta[c]pyridazine-10-carboxamide]",< 0.5
18,"O=C(Nc1cc(Cl)c(-c2ccc(OC[C@H]3CCOC3)nc2)cc1F)N1[C@H]2CC[C@@H]1c1n[nH]c(=O)cc1C2 [Compound 80, (6S,9R)-N-(5-Chloro-2-fluoro-4-(6-(((S)-tetrahydrofuran-3-yl)methoxy)pyridin-3-yl)phenyl)-3-oxo-3,5,6,7,8,9-hexahydro-2H-6,9-epiminocyclohepta[c]pyridazine-10-carboxamide]",< 0.5
19,"O=C(Nc1cc(Cl)c(-c2ccc(OC[C@H]3CC3(F)F)nc2)cc1F)N1[C@H]2CC[C@@H]1c1n[nH]c(=O)cc1C2 [Compound 81, (6S,9R)-N-(5-Chloro-4-(6-(((R)-2,2-difluorocyclopropyl)methoxy)pyridin-3-yl)-2-fluorophenyl)-3-oxo-3,5,6,7,8,9-hexahydro-2H-6,9-epiminocyclohepta[c]pyridazine-10-carboxamide]",< 0.5
20,"O=C(Nc1cc(Cl)c(-c2ccc(OC[C@H]3CC3(F)F)nc2)cc1F)N1[C@H]2CC[C@@H]1c1c[nH]c(=O)cc1C2 [Compound 82, (6S,9R)-N-(5-Chloro-4-(6-(((R)-2,2-difluorocyclopropyl)methoxy)pyridin-3-yl)-2-fluorophenyl)-3-oxo-3,5,6,7,8,9-hexahydro-2H-6,9-epiminocyclohepta[c]pyridine-10-carboxamide]",< 0.5
21,"O=C(Nc1cc(Cl)c(-c2ccc(OC[C@@H]3CC3(F)F)nc2)cc1F)N1[C@H]2CC[C@@H]1c1n[nH]c(=O)cc1C2 [Compound 83, (6S,9R)-N-(5-Chloro-4-(6-(((S)-2,2-difluorocyclopropyl)methoxy)pyridin-3-yl)-2-fluorophenyl)-3-oxo-3,5,6,7,8,9-hexahydro-2H-6,9-epiminocyclohepta[c]pyridazine-10-carboxamide]",< 0.5
22,"O=C(Nc1cc(Cl)c(-c2ccc(OC3CCOCC3)nc2)cc1F)N1[C@H]2CC[C@@H]1c1n[nH]c(=O)cc1C2 [Compound 84, (6S,9R)-N-(5-Chloro-2-fluoro-4-(6-((tetrahydro-2H-pyran-4-yl)oxy)pyridin-3-yl)phenyl)-3-oxo-3,5,6,7,8,9-hexahydro-2H-6,9-epiminocyclohepta[c]pyridazine-10-carboxamide]",< 0.5
23,"O=C(Nc1cc(Cl)c(-c2ccc(OC[C@@H]3CC3(F)F)nc2)cc1F)N1[C@H]2CC[C@@H]1c1c[nH]c(=O)cc1C2 [Compound 85, (6S,9R)-N-(5-Chloro-4-(6-(((S)-2,2-difluorocyclopropyl)methoxy)pyridin-3-yl)-2-fluorophenyl)-3-oxo-3,5,6,7,8,9-hexahydro-2H-6,9-epiminocyclohepta[c]pyridine-10-carboxamide]",< 0.5
24,"O=C(Nc1cc(Cl)c(-c2ccc(OCC3(F)CC3)nc2)cc1F)N1[C@H]2CC[C@@H]1c1n[nH]c(=O)cc1C2 [Compound 86, (6S,9R)-N-(5-Chloro-2-fluoro-4-(6-((1-fluorocyclopropyl)methoxy)pyridin-3-yl)phenyl)-3-oxo-3,5,6,7,8,9-hexahydro-2H-6,9-epiminocyclohepta[c]pyridazine-10-carboxamide]",< 0.5
25,"O=C(Nc1cc(Cl)c(-c2ccc(OC3CCS(=O)(=O)CC3)nc2)cc1F)N1[C@H]2CC[C@@H]1c1n[nH]c(=O)cc1C2 [Compound 87, (6S,9R)-N-(5-Chloro-4-(6-((1,1-dioxidotetrahydro-2H-thiopyran-4-yl)oxy)pyridine-3-yl)-2-fluorophenyl)-3-oxo-3,5,6,7,8,9-hexahydro-2H-6,9-epiminocyclohepta[c]pyridazine-10-carboxamide]",< 0.5
